# Measured values published in patent US20240131022A1 (published 2024).
# What was measured:
# [1] = Stability in brain homogenate; conditions: within the time frame of the study
# [2] = target: δ-receptor (Homo sapiens, UniProt P41143); assay: Functional profile in CHO transfected cells, δ-receptor inhibition; type: cell-based
# [3] = target: μ-receptor (Homo sapiens, UniProt P35372); assay: cell-based
# [4] = target: k-receptor (Homo sapiens, UniProt P41145); assay: cell-based; conditions: read-out: k-receptor activation (IC50 or %)
# Sequence of k-receptor (P41145 whole entry): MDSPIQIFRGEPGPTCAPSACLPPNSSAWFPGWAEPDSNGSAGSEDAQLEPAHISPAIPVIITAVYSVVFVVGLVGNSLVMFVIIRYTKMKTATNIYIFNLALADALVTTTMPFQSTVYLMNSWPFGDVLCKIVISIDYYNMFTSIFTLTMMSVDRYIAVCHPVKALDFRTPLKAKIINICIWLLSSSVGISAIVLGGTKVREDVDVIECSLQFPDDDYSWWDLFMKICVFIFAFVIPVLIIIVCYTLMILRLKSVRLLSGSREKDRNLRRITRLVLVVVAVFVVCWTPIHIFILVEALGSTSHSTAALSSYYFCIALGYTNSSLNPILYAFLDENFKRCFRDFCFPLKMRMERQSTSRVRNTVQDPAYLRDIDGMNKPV
# Sequence of δ-receptor (P41143 whole entry): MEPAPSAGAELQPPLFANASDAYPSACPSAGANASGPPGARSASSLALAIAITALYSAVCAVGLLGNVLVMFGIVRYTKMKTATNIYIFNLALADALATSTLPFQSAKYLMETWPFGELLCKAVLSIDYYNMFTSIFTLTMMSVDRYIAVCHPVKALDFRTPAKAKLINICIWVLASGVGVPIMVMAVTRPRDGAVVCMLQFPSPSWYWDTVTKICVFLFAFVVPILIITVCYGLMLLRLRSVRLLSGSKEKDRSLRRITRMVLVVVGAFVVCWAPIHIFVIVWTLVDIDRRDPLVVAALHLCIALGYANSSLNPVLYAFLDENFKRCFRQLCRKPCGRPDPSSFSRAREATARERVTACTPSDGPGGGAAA
# Sequence of μ-receptor (P35372 whole entry): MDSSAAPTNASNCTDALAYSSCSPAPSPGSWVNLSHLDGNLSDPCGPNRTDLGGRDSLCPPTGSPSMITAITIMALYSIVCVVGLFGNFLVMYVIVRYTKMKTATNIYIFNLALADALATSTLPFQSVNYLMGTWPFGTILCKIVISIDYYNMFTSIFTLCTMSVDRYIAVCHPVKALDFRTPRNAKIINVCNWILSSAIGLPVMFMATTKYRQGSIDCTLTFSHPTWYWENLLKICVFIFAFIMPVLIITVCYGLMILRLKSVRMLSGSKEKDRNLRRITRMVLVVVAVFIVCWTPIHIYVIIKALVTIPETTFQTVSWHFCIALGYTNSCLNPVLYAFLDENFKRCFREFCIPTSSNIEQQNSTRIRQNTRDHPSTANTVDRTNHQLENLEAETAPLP
SMILES,intact in brain homogenate [1] [%],IC50 [2] [µM],IC50 [3] [µM],activation at 1 µM [4] [%],inhibition at 1 µM ([3]; read-out: μ-receptor inhibition (IC50 or %)) [%]
"C=CCN1CCC23c4c5ccc(OC(=O)/C=C/C=C/C)c4OC2C(=O)CCC3(O)C1C5 (stereo not shown) [NX90, 3-hexadienoate derivative of naloxone]",85±13,> 10,0.137 ± 0.012,,
"C/C=C/C=C/C(=O)Oc1ccc2c3c1OC1C(O)CCC4(O)C(C2)N(CC2CCC2)CCC314 (stereo not shown) [NB33, 3-hexadienoate derivative of nalbuphine]",65±6,> 10,,22.3,82.8
